Measured values: patent US20220386606A1, “SPECIFICALLY SUBSTITUTED 3-PHENYL-5-SPIROCYCLOPENTYL-3-PYRROLIN-2-ONES AND THEIR USE AS HERBICIDES” (Bayer Aktiengesellschaft, priority 2019, published 2022)

Tests used:
AVEFA [1] = experiment: Pre-emergence herbicidal action against AVEFA; format: in vivo, Avena fatua; conditions: 320 g/ha, scored visually after 3 weeks vs untreated controls
Method in brief: (§1)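 Pots of sandy loam with covered seeds receive a surface application of compound (WP or EC; aqueous, 600 to 800 L/ha, 0.2% wetting agent) before emergence. Under good greenhouse growth conditions, percent damage is judged by eye at 3 weeks against untreated controls.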

ECHCG [2] = experiment: Post-emergence herbicidal action against ECHCG; format: in vivo, Echinochloa crus-galli; conditions: 80 g/ha, visual assessment about 3 weeks after treatment vs untreated controls
Method in brief: (§2)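 Sow in sandy loam and grow in the greenhouse for 2 to 3 weeks to the one-leaf stage. Spray the compound as an aqueous suspension or emulsion with 0.2% wetting agent, 600 to 800 l/ha water rate. Hold about 3 weeks, then score damage visually versus controls.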

ALOMY [3] = experiment: Post-emergence herbicidal action against ALOMY; format: in vivo, Alopecurus myosuroides; conditions: 80 g/ha, visual assessment after about 3 weeks
Method in brief: as §2

VIOTR = experiment: Pre-emergence herbicidal action against VIOTR; format: in vivo, Viola tricolor; conditions: 320 g/ha
From the text: (§3) Seeds of monocotyledonous and dicotyledonous weed plants and crop plants are laid out in sandy loam soil in wood-fiber pots and covered with soil. The compounds of the invention, formulated in the form of wettable powders (WP) or as emulsion concentrates (EC), are then applied to the surface of the covering soil as aqueous suspension or emulsion at a water application rate equating to 600 to 800 L/ha with addition of 0.2% wetting agent.
(§4) After the treatment, the pots are placed in a greenhouse and kept under good growth conditions for the trial plants. The damage to the test plants is scored visually after a test period of 3 weeks by comparison with untreated controls (herbicidal activity in percent (%): 100% activity=the plants have died, 0% activity=like control plants).

VERPE = experiment: Pre-emergence herbicidal action against VERPE; format: in vivo, Veronica persica; conditions: 320 g/ha
From the text: as §3, §4

DIGSA [4] = experiment: Post-emergence herbicidal action against DIGSA; format: in vivo, Digitaria sanguinalis; conditions: 80 g/ha, visual assessment about 3 weeks after treatment vs untreated controls
Method in brief: as §2

AVEFA [5] = experiment: Post-emergence herbicidal action against AVEFA; format: in vivo, Avena fatua; conditions: 80 g/ha, visual assessment after about 3 weeks
Method in brief: as §2

DIGSA [6] = experiment: Pre-emergence herbicidal action against DIGSA; format: in vivo, Digitaria sanguinalis; conditions: 320 g/ha, scored visually after 3 weeks vs untreated controls
Method in brief: as §1

ECHCG [7] = experiment: Pre-emergence herbicidal action against ECHCG; format: in vivo, Echinochloa crus-galli; conditions: 320 g/ha, scored visually after 3 weeks vs untreated controls
Method in brief: as §1

LOLRI [8] = experiment: Post-emergence herbicidal action against LOLRI; format: in vivo, Lolium rigidum; conditions: 80 g/ha, visual assessment about 3 weeks after treatment vs untreated controls
Method in brief: as §2

LOLRI [9] = experiment: Pre-emergence herbicidal action against LOLRI (Table 8, titled post-emergence at 320 g/ha); format: in vivo, Lolium rigidum; conditions: table stands in the pre-emergence section
Method in brief: as §1

SETVI [10] = experiment: Pre-emergence herbicidal action against SETVI; format: in vivo, Setaria viridis; conditions: 320 g/ha, scored visually after 3 weeks vs untreated controls
Method in brief: as §1

AMARE = experiment: Pre-emergence herbicidal action against AMARE; format: in vivo, Amaranthus retroflexus; conditions: 320 g/ha
From the text: as §3, §4

ALOMY [11] = experiment: Pre-emergence herbicidal action against ALOMY; format: in vivo, Alopecurus myosuroides; conditions: 320 g/ha, scored visually after 3 weeks vs untreated controls
Method in brief: as §1

SETVI [12] = experiment: Post-emergence herbicidal action against SETVI; format: in vivo, Setaria viridis; conditions: 80 g/ha, visual assessment about 3 weeks after treatment vs untreated controls
Method in brief: as §2

CC#Cc1cc(C)c(C2=C(OC(=O)C(C)C)C3(CCC(COCC)C3)NC2=O)c(OC)c1 (stereo not drawn) [Example P-50]
80%: Pre-emergence action against VERPE in % (VERPE)
90%: Post-emergence action against DIGSA in % (DIGSA [4]) | Post-emergence action against AVEFA in % (AVEFA [5])
100%: Pre-emergence action against AVEFA in % (AVEFA [1]) | Post-emergence action against ECHCG in % (ECHCG [2]) | Post-emergence action against ALOMY in % (ALOMY [3]) | Pre-emergence action against VIOTR in % (VIOTR) | Pre-emergence action against DIGSA in % (DIGSA [6]) | Pre-emergence action against ECHCG in % (ECHCG [7]) | Post-emergence action against LOLRI in % (LOLRI [8]) | Pre-emergence herbicidal action against LOLRI in % (LOLRI [9]) | Pre-emergence action against SETVI in % (SETVI [10]) | Pre-emergence action against AMARE in % (AMARE) | Pre-emergence action against ALOMY in % (ALOMY [11]) | Post-emergence action against SETVI in % (SETVI [12])

CC#Cc1cc(F)c(C2=C(OC(=O)OCC)C3(CCC(COCC)C3)NC2=O)c(OC)c1 (stereo not drawn) [Example P-69]
90%: Pre-emergence action against VERPE in % (VERPE) | Post-emergence action against AVEFA in % (AVEFA [5]) | Post-emergence action against LOLRI in % (LOLRI [8])
80%: Pre-emergence action against AVEFA in % (AVEFA [1]) | Pre-emergence action against VIOTR in % (VIOTR) | Post-emergence action against DIGSA in % (DIGSA [4])
100%: Post-emergence action against ECHCG in % (ECHCG [2]) | Post-emergence action against ALOMY in % (ALOMY [3]) | Pre-emergence action against DIGSA in % (DIGSA [6]) | Pre-emergence action against ECHCG in % (ECHCG [7]) | Pre-emergence herbicidal action against LOLRI in % (LOLRI [9]) | Pre-emergence action against SETVI in % (SETVI [10]) | Pre-emergence action against ALOMY in % (ALOMY [11]) | Post-emergence action against SETVI in % (SETVI [12])

CC#Cc1cc(F)c(C2=C(OC(=O)C(C)C)C3(CCC(COCC)C3)NC2=O)c(OC)c1 (stereo not drawn) [Example P-67]
80%: Pre-emergence action against AVEFA in % (AVEFA [1]) | Pre-emergence action against VERPE in % (VERPE) | Pre-emergence action against AMARE in % (AMARE)
100%: Post-emergence action against ECHCG in % (ECHCG [2]) | Post-emergence action against ALOMY in % (ALOMY [3]) | Pre-emergence action against DIGSA in % (DIGSA [6]) | Pre-emergence action against ECHCG in % (ECHCG [7]) | Pre-emergence action against SETVI in % (SETVI [10]) | Pre-emergence action against ALOMY in % (ALOMY [11]) | Post-emergence action against SETVI in % (SETVI [12])
90%: Post-emergence action against AVEFA in % (AVEFA [5]) | Post-emergence action against LOLRI in % (LOLRI [8]) | Pre-emergence herbicidal action against LOLRI in % (LOLRI [9])

CC#Cc1cc(C)c(C2=C(OC(=O)OCC)C3(CCC(COCCOC)C3)NC2=O)c(OC)c1 (stereo not drawn) [Example P-79]
90%: Pre-emergence action against VERPE in % (VERPE) | Post-emergence action against DIGSA in % (DIGSA [4]) | Post-emergence action against AVEFA in % (AVEFA [5]) | Post-emergence action against LOLRI in % (LOLRI [8])
80%: Pre-emergence action against AMARE in % (AMARE)
100%: Pre-emergence action against AVEFA in % (AVEFA [1]) | Post-emergence action against ECHCG in % (ECHCG [2]) | Post-emergence action against ALOMY in % (ALOMY [3]) | Pre-emergence action against VIOTR in % (VIOTR) | Pre-emergence action against DIGSA in % (DIGSA [6]) | Pre-emergence action against ECHCG in % (ECHCG [7]) | Pre-emergence herbicidal action against LOLRI in % (LOLRI [9]) | Pre-emergence action against SETVI in % (SETVI [10]) | Pre-emergence action against ALOMY in % (ALOMY [11]) | Post-emergence action against SETVI in % (SETVI [12])

CC#Cc1cc(Br)c(C2=C(O)C3(CCC(COCC)C3)NC2=O)c(CC)c1 (stereo not drawn) [Example I-24]
80%: Pre-emergence action against VERPE in % (VERPE)

C=CCOCC1CCC2(C1)NC(=O)C(c1c(C)cc(C#CC)cc1Br)=C2OC(=O)OCC (stereo not drawn) [Example P-85]
100%: Post-emergence action against ECHCG in % (ECHCG [2]) | Pre-emergence action against VIOTR in % (VIOTR) | Pre-emergence action against DIGSA in % (DIGSA [6]) | Pre-emergence action against ECHCG in % (ECHCG [7]) | Pre-emergence herbicidal action against LOLRI in % (LOLRI [9]) | Pre-emergence action against SETVI in % (SETVI [10]) | Pre-emergence action against ALOMY in % (ALOMY [11]) | Post-emergence action against SETVI in % (SETVI [12])
80%: Pre-emergence action against AVEFA in % (AVEFA [1]) | Post-emergence action against ALOMY in % (ALOMY [3])
90%: Pre-emergence action against VERPE in % (VERPE) | Post-emergence action against DIGSA in % (DIGSA [4]) | Post-emergence action against LOLRI in % (LOLRI [8])

CC#Cc1cc(C)c(C2=C(OC(=O)OCC)C3(CCC(COCC)C3)NC2=O)c(OC)c1 (stereo not drawn) [Example P-48]
100%: Pre-emergence action against AVEFA in % (AVEFA [1]) | Post-emergence action against ECHCG in % (ECHCG [2]) | Post-emergence action against ALOMY in % (ALOMY [3]) | Pre-emergence action against VIOTR in % (VIOTR) | Post-emergence action against DIGSA in % (DIGSA [4]) | Pre-emergence action against DIGSA in % (DIGSA [6]) | Pre-emergence action against ECHCG in % (ECHCG [7]) | Post-emergence action against LOLRI in % (LOLRI [8]) | Pre-emergence herbicidal action against LOLRI in % (LOLRI [9]) | Pre-emergence action against SETVI in % (SETVI [10]) | Pre-emergence action against ALOMY in % (ALOMY [11]) | Post-emergence action against SETVI in % (SETVI [12])
90%: Post-emergence action against AVEFA in % (AVEFA [5])
80%: Pre-emergence action against VERPE in % (VERPE)

C=CCOCC1CCC2(C1)NC(=O)C(c1c(F)cc(C#CC)cc1OC)=C2OC(=O)OCC (stereo not drawn) [Example P-77]
100%: Post-emergence action against ECHCG in % (ECHCG [2]) | Pre-emergence action against VIOTR in % (VIOTR) | Pre-emergence action against DIGSA in % (DIGSA [6]) | Pre-emergence action against ECHCG in % (ECHCG [7]) | Pre-emergence herbicidal action against LOLRI in % (LOLRI [9]) | Pre-emergence action against SETVI in % (SETVI [10]) | Pre-emergence action against ALOMY in % (ALOMY [11]) | Post-emergence action against SETVI in % (SETVI [12])
90%: Pre-emergence action against AVEFA in % (AVEFA [1]) | Post-emergence action against ALOMY in % (ALOMY [3])
80%: Pre-emergence action against VERPE in % (VERPE) | Post-emergence action against DIGSA in % (DIGSA [4])

CC#Cc1cc(C)c(C2=C(OC(=O)C(C)C)C3(CCC(COCC)C3)NC2=O)c(Br)c1 (stereo not drawn) [Example P-36]
90%: Post-emergence action against ECHCG in % (ECHCG [2]) | Post-emergence action against DIGSA in % (DIGSA [4]) | Pre-emergence action against ECHCG in % (ECHCG [7])
100%: Post-emergence action against ALOMY in % (ALOMY [3]) | Pre-emergence action against VIOTR in % (VIOTR) | Pre-emergence action against DIGSA in % (DIGSA [6]) | Pre-emergence herbicidal action against LOLRI in % (LOLRI [9]) | Pre-emergence action against SETVI in % (SETVI [10]) | Pre-emergence action against ALOMY in % (ALOMY [11]) | Post-emergence action against SETVI in % (SETVI [12])
80%: Pre-emergence action against AVEFA in % (AVEFA [1]) | Pre-emergence action against VERPE in % (VERPE)

CC#Cc1cc(C)c(C2=C(OC(=O)OCC)C3(CCC(COCCC)C3)NC2=O)c(OC)c1 (stereo not drawn) [Example P-83]
100%: Post-emergence action against ECHCG in % (ECHCG [2]) | Post-emergence action against ALOMY in % (ALOMY [3]) | Post-emergence action against DIGSA in % (DIGSA [4]) | Pre-emergence action against DIGSA in % (DIGSA [6]) | Pre-emergence action against ECHCG in % (ECHCG [7]) | Post-emergence action against LOLRI in % (LOLRI [8]) | Pre-emergence herbicidal action against LOLRI in % (LOLRI [9]) | Pre-emergence action against SETVI in % (SETVI [10]) | Pre-emergence action against ALOMY in % (ALOMY [11]) | Post-emergence action against SETVI in % (SETVI [12])
90%: Pre-emergence action against VIOTR in % (VIOTR) | Post-emergence action against AVEFA in % (AVEFA [5])
80%: Pre-emergence action against AVEFA in % (AVEFA [1]) | Pre-emergence action against VERPE in % (VERPE)
